Paper PMC9046087, “Structural basis of tethered agonism of the adhesion GPCRs ADGRD1 and ADGRF1” (Nature, 2022)
Ends that are not written are not given here.

Tests used:
Experiment in all cases: BRET assay using TRUPATH biosensors, Gi activation of ADGRF1
Assay type in all cases: cell-based
ADGRF1 [1] = target: T1, ADGRF1 (Homo sapiens, UniProt Q5T601, G831A); conditions: ADGRF1 G831^7.50bA, n = 3
T1 construct: Flag (N); expressed in transfected cells; host or cells: HEK293F
Method in brief: (§1)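 G protein activation by synthetic stalk peptides, read as GFP2-to-RLuc8 emission ratio from the fifth of five successive readings. Cells: HEK293F expressing receptor (WT or mutant) with GαsS-RLuc8 or Gαi1-RLuc8 plus Gβ3 and Gγ9-GFP2 (2:1:1:1). Pre-incubated 30 min at 37 °C; substrate coelenterazine 400a.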

ADGRF1 [2] = target: T2, ADGRF1 (Homo sapiens, UniProt Q5T601, N827A); conditions: ADGRF1 N827^7.46bA
T2 construct: Flag (N); expressed in transfected cells; host or cells: HEK293F
Method in brief: as §1

ADGRF1 [3] = target: T3, ADGRF1 (Homo sapiens, UniProt Q5T601, L800A); conditions: ADGRF1 L800^6.49bA
T3 construct: Flag (N); expressed in transfected cells; host or cells: HEK293F
Method in brief: as §1

ADGRF1 [4] = target: T4, ADGRF1 (Homo sapiens, UniProt Q5T601, L681A); conditions: ADGRF1 L681^3.53bA
T4 construct: Flag (N); expressed in transfected cells; host or cells: HEK293F
Method in brief: as §1

ADGRF1 [5] = target: T5, ADGRF1 (Homo sapiens, UniProt Q5T601, V761A); conditions: ADGRF1 V761^5.53bA, n = 3
T5 construct: Flag (N); expressed in transfected cells; host or cells: HEK293F
Method in brief: as §1

ADGRF1 [6] = target: T6, ADGRF1 (Homo sapiens, UniProt Q5T601, A683G); conditions: ADGRF1 A683^3.55bG
T6 construct: Flag (N); expressed in transfected cells; host or cells: HEK293F
Method in brief: as §1

ADGRF1 [7] = target: T7, ADGRF1 (Homo sapiens, UniProt Q5T601, T810A); conditions: ADGRF1 T810^6.59bA
T7 construct: Flag (N); expressed in transfected cells; host or cells: HEK293F
Method in brief: as §1

ADGRF1 [8] = target: T8, ADGRF1 (Homo sapiens, UniProt Q5T601, W734A); conditions: ADGRF1 W734^ECL2A
T8 construct: Flag (N); expressed in transfected cells; host or cells: HEK293F
Method in brief: as §1

ADGRF1 [9] = target: T9, ADGRF1 (Homo sapiens, UniProt Q5T601, V748A); conditions: ADGRF1 V748^5.40bA
T9 construct: Flag (N); expressed in transfected cells; host or cells: HEK293F
Method in brief: as §1

ADGRF1 [10] = target: T10, ADGRF1 (Homo sapiens, UniProt Q5T601, L799A); conditions: ADGRF1 L799^6.48bA
T10 construct: Flag (N); expressed in transfected cells; host or cells: HEK293F
Method in brief: as §1

ADGRF1 [11] = target: T11, ADGRF1 (Homo sapiens, UniProt Q5T601, G807W); conditions: ADGRF1 G807^6.56bW, n = 3
T11 construct: Flag (N); expressed in transfected cells; host or cells: HEK293F
Method in brief: as §1

ADGRF1 [12] = target: T12, ADGRF1 (Homo sapiens, UniProt Q5T601, F672A); conditions: ADGRF1 F672^3.44bA
T12 construct: Flag (N); expressed in transfected cells; host or cells: HEK293F
Method in brief: as §1

ADGRF1 [13] = target: T13, ADGRF1 (Homo sapiens, UniProt Q5T601, Y668A); conditions: ADGRF1 Y668^3.40bA
T13 construct: Flag (N); expressed in transfected cells; host or cells: HEK293F
Method in brief: as §1

ADGRF1 [14] = target: T14, ADGRF1 (Homo sapiens, UniProt Q5T601, M675A); conditions: ADGRF1 M675^3.47bA
T14 construct: Flag (N); expressed in transfected cells; host or cells: HEK293F
Method in brief: as §1

ADGRF1 [15] = target: T15, ADGRF1 (Homo sapiens, UniProt Q5T601, V732A); conditions: ADGRF1 V732^ECL2A, n = 3
T15 construct: Flag (N); expressed in transfected cells; host or cells: HEK293F
Method in brief: as §1

ADGRF1 [16] = target: T16, ADGRF1 (Homo sapiens, UniProt Q5T601, V765A); conditions: ADGRF1 V765^5.57bA
T16 construct: Flag (N); expressed in transfected cells; host or cells: HEK293F
Method in brief: as §1

[17] = n = 3, read-out: pEC50 (mean ± s.e.m.) (converted)

T8 sequence (Q5T601 20-910 W734A): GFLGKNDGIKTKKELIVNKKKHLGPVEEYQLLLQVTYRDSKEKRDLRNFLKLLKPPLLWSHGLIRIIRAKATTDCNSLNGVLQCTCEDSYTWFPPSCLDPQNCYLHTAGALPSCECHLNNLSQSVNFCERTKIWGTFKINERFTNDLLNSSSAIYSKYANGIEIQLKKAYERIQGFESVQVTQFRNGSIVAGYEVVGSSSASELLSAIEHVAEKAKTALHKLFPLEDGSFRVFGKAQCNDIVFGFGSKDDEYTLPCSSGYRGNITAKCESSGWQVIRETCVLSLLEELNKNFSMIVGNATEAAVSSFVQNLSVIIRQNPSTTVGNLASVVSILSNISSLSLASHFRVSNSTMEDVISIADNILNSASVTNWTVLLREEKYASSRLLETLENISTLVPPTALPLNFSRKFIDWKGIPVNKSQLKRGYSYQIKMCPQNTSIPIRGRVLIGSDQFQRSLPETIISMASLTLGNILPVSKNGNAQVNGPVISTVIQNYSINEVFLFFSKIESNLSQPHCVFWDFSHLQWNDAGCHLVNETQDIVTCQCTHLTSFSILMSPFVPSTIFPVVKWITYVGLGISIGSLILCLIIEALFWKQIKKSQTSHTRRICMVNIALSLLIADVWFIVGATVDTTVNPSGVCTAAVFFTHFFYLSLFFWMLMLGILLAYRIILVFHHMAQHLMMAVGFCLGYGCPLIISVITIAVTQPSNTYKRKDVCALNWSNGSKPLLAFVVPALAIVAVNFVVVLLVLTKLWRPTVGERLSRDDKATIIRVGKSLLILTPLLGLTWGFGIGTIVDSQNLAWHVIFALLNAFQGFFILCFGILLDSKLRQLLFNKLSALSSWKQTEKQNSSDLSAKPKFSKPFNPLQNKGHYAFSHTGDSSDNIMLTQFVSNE
T4 sequence (Q5T601 20-910 L681A): as the sequence (Q5T601 20-910 W734A) above, with L662A, A715W counted along it
T10 sequence (Q5T601 20-910 L799A): as the sequence (Q5T601 20-910 W734A) above, with A715W, L780A counted along it
T9 sequence (Q5T601 20-910 V748A): as the sequence (Q5T601 20-910 W734A) above, with A715W, V729A counted along it
T7 sequence (Q5T601 20-910 T810A): as the sequence (Q5T601 20-910 W734A) above, with A715W, T791A counted along it
T5 sequence (Q5T601 20-910 V761A): as the sequence (Q5T601 20-910 W734A) above, with A715W, V742A counted along it
T6 sequence (Q5T601 20-910 A683G): as the sequence (Q5T601 20-910 W734A) above, with A664G, A715W counted along it
T13 sequence (Q5T601 20-910 Y668A): as the sequence (Q5T601 20-910 W734A) above, with Y649A, A715W counted along it
T16 sequence (Q5T601 20-910 V765A): as the sequence (Q5T601 20-910 W734A) above, with A715W, V746A counted along it
T14 sequence (Q5T601 20-910 M675A): as the sequence (Q5T601 20-910 W734A) above, with M656A, A715W counted along it
T12 sequence (Q5T601 20-910 F672A): as the sequence (Q5T601 20-910 W734A) above, with F653A, A715W counted along it
T15 sequence (Q5T601 20-910 V732A): as the sequence (Q5T601 20-910 W734A) above, with V713A, A715W counted along it
T2 sequence (Q5T601 20-910 N827A): as the sequence (Q5T601 20-910 W734A) above, with A715W, N808A counted along it
T3 sequence (Q5T601 20-910 L800A): as the sequence (Q5T601 20-910 W734A) above, with A715W, L781A counted along it
T1 sequence (Q5T601 20-910 G831A): as the sequence (Q5T601 20-910 W734A) above, with A715W, G812A counted along it
T11 sequence (Q5T601 20-910 G807W): as the sequence (Q5T601 20-910 W734A) above, with A715W, G788W counted along it

TSFSILMSPFVP [pF1]
EC50 (ADGRF1 [1]): 1040 nM | Emax (mean ± s.e.m.) (ADGRF1 [1]): 97 ± 15 % of WT | Emax (mean ± s.e.m.) (ADGRF1 [2]; n = 3): 122 ± 13 % of WT | EC50 (ADGRF1 [2]; [17]): 389 nM | Emax (mean ± s.e.m.) (ADGRF1 [3]; n = 3): 105 ± 8 % of WT | EC50 (ADGRF1 [3]; [17]): 257 nM | Emax (mean ± s.e.m.) (ADGRF1 [4]; n = 3): 59 ± 10 % of WT | EC50 (ADGRF1 [4]; [17]): 120 nM | EC50 (ADGRF1 [5]): 1620 nM | Emax (mean ± s.e.m.) (ADGRF1 [5]): 124 ± 22 % of WT | Emax (mean ± s.e.m.) (ADGRF1 [6]; n = 3): 111 ± 13 % of WT | EC50 (ADGRF1 [6]; [17]): 339 nM | Emax (mean ± s.e.m.) (ADGRF1 [7]; n = 3): 81 ± 12 % of WT | EC50 (ADGRF1 [7]; [17]): 562 nM | Emax (mean ± s.e.m.) (ADGRF1 [8]; n = 3): 60 ± 11 % of WT | EC50 (ADGRF1 [8]; [17]): 138 nM | Emax (mean ± s.e.m.) (ADGRF1 [9]; n = 3): 85 ± 17 % of WT | EC50 (ADGRF1 [9]; [17]): 56.2 nM | Emax (mean ± s.e.m.) (ADGRF1 [10]; n = 3): 109 ± 11 % of WT | EC50 (ADGRF1 [10]; [17]): 380 nM | EC50 (ADGRF1 [11]): 1520 nM | Emax (mean ± s.e.m.) (ADGRF1 [11]): 101 ± 13 % of WT | Emax (mean ± s.e.m.) (ADGRF1 [12]; n = 3): 72 ± 12 % of WT | EC50 (ADGRF1 [12]; [17]): 437 nM | Emax (mean ± s.e.m.) (ADGRF1 [13]; n = 3): 123 ± 17 % of WT | EC50 (ADGRF1 [13]; [17]): 355 nM | Emax (mean ± s.e.m.) (ADGRF1 [14]; n = 3): 81 ± 13 % of WT | EC50 (ADGRF1 [14]; [17]): 427 nM | EC50 (ADGRF1 [15]): 1950 nM | Emax (mean ± s.e.m.) (ADGRF1 [15]): 73 ± 13 % of WT | Emax (mean ± s.e.m.) (ADGRF1 [16]; n = 3): 92 ± 16 % of WT | EC50 (ADGRF1 [16]; [17]): 912 nM
